Measurements as given in US11155557B2, “Pyrazolopyrimidine compounds and methods of use thereof” (Genentech, Inc., priority 2016, dated 2021).
Where two headings read alike, the source gives them in different places.

Tests used:
[1] = target: isolated recombinant JAK1 kinase domain (Homo sapiens (Human), UniProt P23458); test: JAK1 enzyme assay (Caliper LabChip, Ki); format: biochemical
Description: The activity of the isolated recombinant JAK1 and JAK2 kinase domain was measured by monitoring phosphorylation of a peptide derived from JAK3 ([…] fluorescently labeled on the N-terminus with 5-carboxyfluorescein) using the Caliper LabChip R technology (Caliper Life Sciences, Hopkinton, Mass.).

[2] = target: isolated recombinant JAK2 kinase domain (Homo sapiens (Human), UniProt O60674); test: JAK2 enzyme assay (Caliper LabChip, Ki); conditions: read-out: JAK2 Ki
[3] = system: JAK1-dependent STAT6 phosphorylation in BEAS-2B human bronchial epithelial cells; test: JAK1 pathway assay: IL-13 stimulated STAT6 phosphorylation in BEAS-2B cells; format: cell-based; conditions: BEAS-2B cells, IL-13 stimulation, read-out: IL-13 p-STAT6 BEAS-2B IC50
Description: JAK1 Pathway Assay in Cell Lines was Carried Out as Follows:
Inhibitor potency (EC50) was determined in cell-based assays designed to measure JAK1 dependent STAT phosphorylation.
In one assay approach, TF-1 human erythroleukemia cells obtained from the American Type Culture Collection (ATCC; Manassas, Va.) were used to measure JAK1-dependent STAT6 phosphorylation downstream of IL-13 stimulation. Prior to use in the assays, TF-1 cells were starved of GM-CSF overnight in OptiMEM medium (Life Technologies, Grand Island, N.Y.) supplemented with 0.5% charcoal/dextran stripped fetal bovine serum (FBS), 0.1 mM non-essential amino acids (NEAA), and 1 mM sodium pyruvate. The assays were run in 384-well plates in serum-free OptiMEM medium using 300,000 cells per well. In a second assay approach, BEAS-2B human bronchial epithelial cells obtained from ATCC were plated at 100,000 cells per well of a 96-well plate one day prior to the experiment. The BEAS-2B assay was run in complete growth medium (bronchial epithelial basal medium plus bulletkit; Lonza; Basel, Switzerland).
Test compounds were serially diluted 1:2 in DMSO and then diluted 1:50 in medium just before use. Diluted compounds were added to the cells, for a final DMSO concentration of 0.2%, and incubated for 30 min (for the TF-1 assay) or 1 hr (for the BEAS-2B assay) at 37° C. Then, cells were stimulated with human recombinant cytokine at their respective EC90 concentrations, as previously determined for each individual lot. Cells were stimulated with IL-13 (R&D Systems, Minneapolis, Minn.) for 15 min at 37° C. […] The resultant samples were frozen in the plates at −80° C. Compound mediated inhibition of STAT6 phosphorylation was measured in the cell lysates using MesoScale Discovery (MSD) technology (Gaithersburg, Md.).

Chain of isolated recombinant JAK1 kinase domain (P23458 875-1153): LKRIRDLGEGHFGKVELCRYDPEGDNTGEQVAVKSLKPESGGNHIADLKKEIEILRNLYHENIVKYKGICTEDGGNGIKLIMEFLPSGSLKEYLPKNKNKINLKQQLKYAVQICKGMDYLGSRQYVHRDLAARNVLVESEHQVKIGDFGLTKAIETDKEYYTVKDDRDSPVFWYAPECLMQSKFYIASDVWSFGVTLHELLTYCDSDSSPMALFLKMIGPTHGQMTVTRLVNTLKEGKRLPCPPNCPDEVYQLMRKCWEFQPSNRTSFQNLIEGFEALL
Chain of isolated recombinant JAK2 kinase domain (O60674 849-1124): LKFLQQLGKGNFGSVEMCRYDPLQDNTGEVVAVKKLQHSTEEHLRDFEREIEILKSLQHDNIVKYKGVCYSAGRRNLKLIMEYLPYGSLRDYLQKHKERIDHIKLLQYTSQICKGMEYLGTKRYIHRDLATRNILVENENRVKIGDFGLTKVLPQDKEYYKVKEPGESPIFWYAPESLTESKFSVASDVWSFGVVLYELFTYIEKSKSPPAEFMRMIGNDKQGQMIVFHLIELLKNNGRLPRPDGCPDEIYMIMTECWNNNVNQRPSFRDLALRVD

Compound | Ki [1] [nM] | Ki [2] [nM] | IC50 [3] [nM] | IC50 ([3]; Homo sapiens, BEAS-2B) [nM] | Ki ([1]; formic acid) [nM] | Ki ([2]; formic acid) [nM] | IC50 ([3]; formic acid) [nM]
CC1CNc2cc(OC(F)F)c(-c3nn(CC(=O)N(C)C)cc3NC(=O)c3cnn4cccnc34)cc2S1 (single isomer, unassigned) [Example 106, N-[3-[6-(difluoromethoxy)-2-methyl-3,4-dihydro-2H-1,4-benzothiazin-7-yl]-1-[2-(dimethylamino)-2-oxo-ethyl]pyrazol-4-yl]pyrazolo[1,5-a]pyrimidine-3-carboxamide] | 0.17 | 0.19 | 27 | – | – | – | –
CC1CSc2cc(-c3nn(CC(=O)N4CCCCC4)cc3NC(=O)c3cnn4cccnc34)c(OC(F)F)cc2N1 (single isomer, unassigned) [Example 107, N-[3-[6-(difluoromethoxy)-3-methyl-3,4-dihydro-2H-1,4-benzothiazin-7-yl]-1-[2-oxo-2-(1-piperidyl)ethyl]pyrazol-4-yl]pyrazolo[1,5-a]pyrimidine-3-carboxamide] | 0.2 | 0.23 | – | 11 | – | – | –
CC1CSc2cc(-c3nn(CC(=O)N4CCCCC4)cc3NC(=O)c3cnn4cccnc34)c(OC(F)F)cc2N1 (single isomer, unassigned) [Example 108, N-[3-[6-(difluoromethoxy)-3-methyl-3,4-dihydro-2H-1,4-benzothiazin-7-yl]-1-[2-oxo-2-(1-piperidyl)ethyl]pyrazol-4-yl]pyrazolo[1,5-a]pyrimidine-3-carboxamide] | 0.19 | 0.23 | 12 | – | – | – | –
CC1CSc2cc(-c3nn(CC(=O)N4CC=CCC4)cc3NC(=O)c3cnn4cccnc34)c(OC(F)F)cc2N1 (single isomer, unassigned) [Example 111, N-[3-[6-(difluoromethoxy)-3-methyl-3,4-dihydro-2H-1,4-benzothiazin-7-yl]-1-[2-(3,6-dihydro-2H-pyridin-1-yl)-2-oxo-ethyl]pyrazol-4-yl]pyrazolo[1,5-a]pyrimidine-3-carboxamide] | 0.2 | 0.21 | – | 15 | – | – | –
CC1CSc2cc(-c3nn(CC(=O)N4CC=CCC4)cc3NC(=O)c3cnn4cccnc34)c(OC(F)F)cc2N1 (single isomer, unassigned) [Example 112, N-[3-[6-(difluoromethoxy)-3-methyl-3,4-dihydro-2H-1,4-benzothiazin-7-yl]-1-[2-(3,6-dihydro-2H-pyridin-1-yl)-2-oxo-ethyl]pyrazol-4-yl]pyrazolo[1,5-a]pyrimidine-3-carboxamide] | 0.15 | 0.18 | 10 | – | – | – | –
CC1CSc2cc(-c3nn(CC(=O)N(C)C)cc3NC(=O)c3cnn4cccnc34)c(OC(F)F)cc2N1 (single isomer, unassigned) [Example 113, N-[3-[6-(difluoromethoxy)-3-methyl-3,4-dihydro-2H-1,4-benzothiazin-7-yl]-1-[2-(dimethylamino)-2-oxo-ethyl]pyrazol-4-yl]pyrazolo[1,5-a]pyrimidine-3-carboxamide] | 0.22 | 0.27 | – | 22 | – | – | –
CC1CSc2cc(-c3nn(CC(=O)N(C)C)cc3NC(=O)c3cnn4cccnc34)c(OC(F)F)cc2N1 (single isomer, unassigned) [Example 114, N-[3-[6-(difluoromethoxy)-3-methyl-3,4-dihydro-2H-1,4-benzothiazin-7-yl]-1-[2-(dimethylamino)-2-oxo-ethyl]pyrazol-4-yl]pyrazolo[1,5-a]pyrimidine-3-carboxamide] | 0.21 | 0.24 | 15 | – | – | – | –
CN1CCC(n2cc(NC(=O)c3cnn4cccnc34)c(-c3cc4c(cc3OC(F)F)NCCS4)n2)C1=O (single isomer, unassigned) [Example 125, N-[3-[6-(difluoromethoxy)-3,4-dihydro-2H-1,4-benzothiazin-7-yl]-1-(1-methyl-2-oxo-pyrrolidin-3-yl)pyrazol-4-yl]pyrazolo[1,5-a]pyrimidine-3-carboxamide] | 0.15 | 0.11 | 81 | – | – | – | –
CN1CCC(n2cc(NC(=O)c3cnn4cccnc34)c(-c3cc4c(cc3OC(F)F)NCCS4)n2)C1=O (single isomer, unassigned) [Example 126, N-[3-[6-(difluoromethoxy)-3,4-dihydro-2H-1,4-benzothiazin-7-yl]-1-(1-methyl-2-oxo-pyrrolidin-3-yl)pyrazol-4-yl]pyrazolo[1,5-a]pyrimidine-3-carboxamide] | 0.88 | 0.43 | 286 | – | – | – | –
O=C(Nc1cn(C2CCOC2=O)nc1-c1cc2c(cc1OC(F)F)NCCS2)c1cnn2cccnc12 (single isomer, unassigned) [Example 141, N-[3-[6-(difluoromethoxy)-3,4-dihydro-2H-1,4-benzothiazin-7-yl]-1-(2-oxotetrahydrofuran-3-yl)pyrazol-4-yl]pyrazolo[1,5-a]pyrimidine-3-carboxamide] | 0.17 | 0.09 | – | 11 | – | – | –
O=C(Nc1cn(C2CCOC2=O)nc1-c1cc2c(cc1OC(F)F)NCCS2)c1cnn2cccnc12 (single isomer, unassigned) [Example 142, N-[3-[6-(difluoromethoxy)-3,4-dihydro-2H-1,4-benzothiazin-7-yl]-1-(2-oxotetrahydrofuran-3-yl)pyrazol-4-yl]pyrazolo[1,5-a]pyrimidine-3-carboxamide] | 0.09 | 0.06 | 15 | – | – | – | –
O=C(Nc1cn(C2CCOC2=O)nc1-c1cc2c(cc1OC(F)F)NCCO2)c1cnn2cccnc12 (single isomer, unassigned) [Example 145, N-[3-[6-(difluoromethoxy)-3,4-dihydro-2H-1,4-benzoxazin-7-yl]-1-(2-oxotetrahydrofuran-3-yl)pyrazol-4-yl]pyrazolo[1,5-a]pyrimidine-3-carboxamide] | 0.6 | 0.42 | 36 | – | – | – | –
O=C(Nc1cn(C2CCOC2=O)nc1-c1cc2c(cc1OC(F)F)NCCO2)c1cnn2cccnc12 (single isomer, unassigned) [Example 146, N-[3-[6-(difluoromethoxy)-3,4-dihydro-2H-1,4-benzoxazin-7-yl]-1-(2-oxotetrahydrofuran-3-yl)pyrazol-4-yl]pyrazolo[1,5-a]pyrimidine-3-carboxamide; formic acid] | – | – | – | – | 0.32 | 0.29 | 74
O=C(Nc1c[nH]nc1-c1cc2ccccc2cc1OC(F)F)c1cnn2cccnc12 [Example 1, N-(3-(3-(difluoromethoxy)naphthalen-2-yl)-1H-pyrazol-4-yl)pyrazolo[1,5-a]pyrimidine-3-carboxamide] | 0.31 | 0.14 | – | 6 | – | – | –
O=C(Nc1cn(CC(=O)N2CCC(CN3CCOCC3)CC2)nc1-c1cc2ccccc2cc1OC(F)F)c1cnn2cccnc12 [Example 3, N-(3-(3-(difluoromethoxy)naphthalen-2-yl)-1-(2-(4-(morpholinomethyl)piperidin-1-yl)-2-oxoethyl)-1H-pyrazol-4-yl)pyrazolo[1,5-a]pyrimidine-3-carboxamide] | 0.38 | 0.97 | – | 8 | – | – | –
Cn1cc(NC(=O)c2cnn3cccnc23)c(-c2cc3ccccc3cc2OC(F)F)n1 [Example 4, N-(3-(3-(difluoromethoxy)naphthalen-2-yl)-1-methyl-1H-pyrazol-4-yl)pyrazolo[1,5-a]pyrimidine-3-carboxamide] | 0.22 | 0.12 | – | 22 | – | – | –
O=C(Nc1cn(CC(=O)N2CCCCC2)nc1-c1cc2c(cc1OC(F)F)NCCO2)c1cnn2cccnc12 [Example 6, N-[3-[6-(difluoromethoxy)-3,4-dihydro-2H-1,4-benzoxazin-7-yl]-1-[2-oxo-2-(piperidin-1-yl)ethyl]-1H-pyrazol-4-yl]pyrazolo[1,5-a]pyrimidine-3-carboxamide] | 0.2 | 0.31 | – | 17 | – | – | –
COC(=O)c1cc2cc(OC(F)F)c(-c3n[nH]cc3NC(=O)c3cnn4cccnc34)cc2s1 [Example 7, Methyl 5-(difluoromethoxy)-6-(4-(pyrazolo[1,5-a]pyrimidine-3-carboxamido)-1H-pyrazol-3-yl)benzo[b]thiophene-2-carboxylate] | 0.17 | 0.11 | – | 6 | – | – | –
COC(=O)Cn1cc(NC(=O)c2cnn3cccnc23)c(-c2cc3sccc3cc2OC(F)F)n1 [Example 8, Methyl 2-(3-(5-(difluoromethoxy)benzo[b]thiophen-6-yl)-4-(pyrazolo[1,5-a]pyrimidine-3-carboxamido)-1H-pyrazol-1-yl)acetate] | 0.32 | 0.29 | – | 10 | – | – | –
